Test results: patent US4001263A, “5-Aryl-1,2,3,4-tetrahydro-γ-carbolines” (Pfizer Inc., priority 1975, dated 1977)
Counter-ions that a name gives are not always drawn. Like-named read-outs stand apart in the source and are kept apart here.

Tested on: amphetamine-induced symptoms in rats
Test: antagonism of amphetamine-induced symptoms in rats (block of characteristic amphetamine cage movement behavior)
Type: in vivo
Details: Rattus norvegicus, ip
Source text: The tranquilizing agents of the present invention are characterized by relief of such schizophrenic manifestations in humans as hallucinations, hostility, suspiciousness, emotional or social withdrawal, anxiety, agitation and tension. Standard procedures of detecting and comparing tranquilizing activity of compounds in this series and for which there is an excellent correlation with human efficacy is the antagonism of amphetamine-induced symptoms in rats test, as taught by A. Weissman, et al., J. Pharmacol. Exp. Ther., 151, 339 (1966) and by Quinton, et al.,Nature, 200, 178 (1963).
The effects of the compounds of the present invention on prominent amphetamine-induced symptoms were studied in rats by a rating scale modeled after the one reported by Quinton and Halliwell, and Weissman. Groups of five rats were placed in a covered plastic cage measuring approximately 26 cm. × 42 cm. × 16 cm. After a brief period of acclimation in the cage, the rats in each groups were treated intraperitoneally (i.p.) with the test compound. […] On the basis of dose-response data after amphetamine it was possible to determine the effective dose of the compound necessary to antagonize or block the characteristic amphetamine behavior of cage movement for 50 percent of the rats tested (ED50). The time of rating chosen coincides with the peak action of amphetamine which is 60-80 min. after treatment with this agent.
Employing the above-described procedure, the following compounds were tested for their ability to block the behavior effects of amphetamine, the results being reported as the ED50 in mg./kg. at the indicated times: […]

[1] = rats, i.p., d-amphetamine sulfate 5 mg./kg. i.p. given 1 hr. after test compound, read-out: ED50 to antagonize or block amphetamine behavior, 1 hr.
[2] = rats, i.p., d-amphetamine sulfate 5 mg./kg. i.p. given 5 hrs. after test compound, read-out: ED50 to antagonize or block amphetamine behavior, 5 hrs.
[3] = rats, i.p., d-amphetamine sulfate 5 mg./kg. i.p. given 24 hrs. after test compound, read-out: ED50 to antagonize or block amphetamine behavior, 24 hrs.

Row | Structure (SMILES) | ED50 [1] [mg/kg] | ED50 [2] [mg/kg] | ED50 [3] [mg/kg] | ED50 (1 h, read-out: ED50 to antagonize or block amphetamine behavior, 1 hr.) [mg/kg]
1 | CCN1CCc2c(c3cc(Cl)ccc3n2-c2ccccc2)C1 [Cl, H, C2H5] | 3.2 to 10 |  |  | 
2 | CN1CCc2c(c3cc(Cl)ccc3n2-c2ccccc2)C1 [Cl, H, CH3, 8-Chloro-5-phenyl-2-methyl-1,2,3,4-tetrahydro-γ-carboline hydrochloride] | 3.2 to 10 |  |  | 
3 | CN1CCc2c(c3cc(Br)ccc3n2-c2ccccc2)C1 [Br, H, CH3] | 3.2 to 10 |  |  | 
4 | CN1CCc2c(c3cc(F)ccc3n2-c2ccc(F)cc2)C1 [F, F, CH3, 8-Fluoro-5-(p-fluorophenyl)-2-methyl-1,2,3,4-tetrahydro-γ-carboline hydrochloride] | 1 to 3.2 |  |  | 
5 | CCN1CCc2c(c3cc(F)ccc3n2-c2ccc(F)cc2)C1 [F, F, C2H5, 8-Fluoro-5-(p-fluorophenyl)-2-ethyl-1,2,3,4-tetrahydro-γ-carboline hydrochloride] | 3.2 to 10 | > 10 | > 10 | 
6 | CN1CCc2c(c3cc(F)ccc3n2-c2ccccc2)C1 [F, H, CH3] | 3.2 to 10 |  |  | 
7 | CCCN1CCc2c(c3cc(F)ccc3n2-c2ccc(F)cc2)C1 [F, F, n-C3H7, 8-fluoro-5-(p-fluorophenyl)-2-n-propyl-1,2,3,4-tetrahydro-γ-carboline] | 3.2 to 10 | > 10 | > 3.2 | 
8 | CN1CCc2c(c3ccccc3n2-c2ccccc2)C1 [H, H, CH3, 5-phenyl-2-methyl-1,2,3,4-tetrahydro-γ-carboline, reference compound] | 10 to 32 |  |  | 
9 | Fc1ccc(C=CCCN2CCc3c(c4cc(F)ccc4n3-c3ccc(F)cc3)C2)cc1 [F, F, p-FC6H4CHCH(CH2)2, 8-Fluoro-5-(p-fluorophenyl)-2-[4-(p-fluorophenyl)-3-butenyl]-1,2,3,4-tetrahydro-γ-carboline] | 3.2 to 10 | 1 to 3.2 | > 3.2 | 
10 | CC(C)(C)CCN1CCc2c(c3cc(F)ccc3n2-c2ccc(F)cc2)C1 [F, F, (CH3)3C(CH2)2, 8-fluoro-5-(p-fluorophenyl)-2-(3,3-dimethyl-n-buty)-1,2,3,4-tetrahydro-γ-carboline] | 1 to 3.2 | > 10 | > 10 | 
11 | c1ccc(CN2CCc3c(c4ccccc4n3-c3ccccc3)C2)cc1 [H, H, CH2C6H5, 5-phenyl-2-benzyl-1,2,3,4-tetrahydro-γ-carboline, reference compound] | > 32 |  |  | 
12 | CN(C)CCCN1c2ccccc2Sc2ccc(Cl)cc21 [chlorpromazine, reference compound] |  |  |  | 7
